The values that follow are results of earlier work, collected in PMC7247160, “Inhibitors of DNA Glycosylases as Prospective Drugs” (International Journal of Molecular Sciences, 2020).

In data set [1] the test system is UNG. The note with it: for IC50: UNG, human, read-out: I50.
Data set [2] has as its system Fpg. The note with it: for Fpg inhibition (in words): free damaged base analogs.
For another data set, the system named is MTH1. The note with it: MTH1, human; read-out: I50.
Data set [3] deals with OGG1. Particulars: OGG1, human; read-out: I50.
Another data set deals with NEIL1. Particulars: NEIL1, human; read-out: I50.
The next data set relates to MPG. Set-up: method as in PMID 25650313. The note with it: human, read-out: I50.
The target in data set [4] is Fpg. The note with it: E. coli.
Data set [5] relates to OGG1. Details: method as in PMID 30442810. Particulars: mouse model.
Data set [6] concerns OGG1. Details: method as in PMID 30442810. The note with it: OGG1, mouse; read-out: I50.
The test system of another data set is NEIL2. Set-up: method as in PMID 23138988. Particulars: NEIL2, human; read-out: I50.
For the next data set, the system named is NTHL1. Set-up: method as in PMID 23138988. The note with it: NTHL1, human; read-out: I50.
The next data set has as its target MutY. Particulars: read-out: Kd or Ki directly measured.
In data set [7] the test system is Fpg. Set-up: method as in PMID 25143530. The note with it: Lactococcus lactis, read-out: I50.
Data set [8] deals with UNG.
Data set [9] deals with UNG. This is another data set of the same source.
The subject of a further data set is Nei2. Details: method as in PMID 28955788. Particulars: Nei2, Mycobacterium tuberculosis.
The test system of another data set is D4/A20 complex. The note with it: UNG (D4), vaccinia virus; read-out: IC50 for DNA polymerase activity in the presence of the D4/A20 complex.
The subject of data set [10] is UNG. Details: method as in PMID 23400284. The note with it: species not specified, read-out: I50.
[11] abbreviates: read-out: Kd or Ki directly measured.

Like-named read-outs stand apart in the source and are kept apart here.

With `O=c1cc(/C=N/OCCCO/N=C/c2ccc(O)c(O)c2)[nH]c(=O)[nH]1` [C00002 R = H], the IC50 in the data set with UNG [1] (bipartite inhibitors) was 1.1 µM.

Turning to `CN(C=O)c1c(N)nc(N)[nH]c1=O` [2,6-diamino-4-oxo-5-(N-methylformamido)pyrimidine], the “Fpg inhibition (in words)” value in the data set on Fpg [2] is on record as “weakly inhibited”. For the molecule `Cc1cnc(N)nc1CCCNC(=O)c1cccc(-c2ccc(S(=O)(=O)Nc3ccc4c(c3)N(C(=O)C3CC3)CCC4)cc2)c1` [SU0383], the IC50 in the data set with MTH1 was 0.034 µM; in the data set on OGG1 [3] it was 0.49 µM.

As to `Cc1cc(/C=C/C#N)cc(C)c1Nc1nc(Nc2ccc3c(c2)CCC3)c2nc[nH]c2n1` [C00028 R = C00031], the IC50 in the data set on NEIL1 is 8.9 µM. In the case of `O=C(O)c1cccc(/C=N/OCC(CO/N=C/c2cccc(C(=O)O)c2)CO/N=C/c2cc(=O)[nH]c(=O)[nH]2)c1` [C00009 R1 = R2 = 3-carboxyphenyl], the IC50 with UNG [1] (triskelion inhibitors) was 1.7 µM. With `O=c1cc(/C=N/OCCCO/N=C/c2cc(O)c(O)cc2Cl)[nH]c(=O)[nH]1` [C00002 R = Cl], in the data set with UNG [1] (bipartite inhibitors), the IC50 is 16 µM. Take `O=c1c(O)c(-c2ccc(O)cc2O)oc2cc(O)cc(O)c12` [Morin]: in the data set on MPG, the IC50 is 2.6 µM. Usually Ki stands for the equilibrium dissociation constant of an inhibitor or competing ligand from its target. Regarding `Nc1c(S(=O)(=O)O)cc(Nc2ccc(Nc3nc(Cl)nc(Nc4ccccc4S(=O)(=O)O)n3)c(S(=O)(=O)O)c2)c2c1C(=O)c1ccccc1C2=O` [Cibacron Blue F3GA], at Fpg [4] (setting [11]), the Ki is 0.005 µM.

Consider `O=c1cc(/C=N/OCCCO/N=C/c2cc(O)c(O)cc2O)[nH]c(=O)[nH]1` [C00002 R = OH], for which, in the data set with UNG [1] (bipartite inhibitors), the IC50 was 0.26 µM. `O=C(O)c1ccc(C=NOCCON=Cc2cc(=O)[nH]c(=O)[nH]2)cc1` [C00003 R1 = C00008 R2 = H, R3 = COOH]: the IC50 with UNG [1] (bipartite inhibitors) was 6 µM. Take `Nc1cc(N)c(N=O)c(N)n1` [5-nitroso-2,4,6-triaminopyridine]: the “Fpg inhibition (in words)” value with Fpg [2] is given as “weakly inhibited”. With `O=C(O)c1cccc(CNCCCCNCc2cc(=O)[nH]c(=O)[nH]2)c1` [C00003 R1 = C00007 R2 = COOH, R3 = H], the IC50 in the data set with UNG [1] (bipartite inhibitors) was 315 µM. On to `O=C(O)c1cccc(/C=N/OCC(CO/N=C/c2cc(=O)[nH]c(=O)[nH]2)CO/N=C/c2cc(=O)[nH]c(=O)[nH]2)c1`, for which the IC50 with UNG [1] (triskelion inhibitors) was 0.9 µM. Take `O=C(Nc1ccc(I)cc1)N1CCC(n2c(=O)[nH]c3c(Br)cccc32)CC1` [TH5487]: the “Effect on inflammatory response” value in the data set with OGG1 [5] is “downregulates the inflammatory response”. Also, in the data set with OGG1 [6], the IC50 is 0.34 µM.

With `O=c1cc(/C=N/OCCCO/N=C/c2cc(O)c(O)cc2F)[nH]c(=O)[nH]1` [C00002 R = F], the IC50 in the data set on UNG [1] (bipartite inhibitors) was 2.7 µM.

Take `O=C(O)c1cccc(C=NOCCON=Cc2cc(=O)[nH]c(=O)[nH]2)c1` [C00003 R1 = C00004 R2 = COOH, R3 = H]: the IC50 with UNG [1] (bipartite inhibitors) was 40 µM. Regarding `O=C(O)c1cccc(CNCCCON=Cc2cc(=O)[nH]c(=O)[nH]2)c1` [C00003 R1 = C00006 R2 = COOH, R3 = H], the IC50 with UNG [1] (bipartite inhibitors) was 100 µM. Take `Nc1cc(=O)[nH]c(N)c1N=O` [5-nitroso-4,6-diamino-2-oxopyridine]: the “Fpg inhibition (in words)” value with Fpg [2] was “weakly inhibited”. In the case of `Cc1nc2ccc(Nc3nc(Nc4c(C)cc(/C=C/C#N)cc4C)nc4[nH]cnc34)cc2s1` [C00028 R = C00030], the IC50 in the data set with NEIL1 was 7.9 µM. As for `O=C(O)c1cccc(C=NOCCCNCc2cc(=O)[nH]c(=O)[nH]2)c1` [C00003 R1 = C00005 R2 = COOH, R3 = H], in the data set with UNG [1] (bipartite inhibitors), the IC50 was 1.6 µM. Consider `O=C(O)/C=C/C(=O)CC(=O)CC(=O)O` [Fumarylacetoacetate], for which the IC50 is 0.032 µM with NEIL2, 1 µM with NTHL1, 1 µM in the data set on OGG1 [3] and 0.006 µM in the data set on NEIL1. In the case of `NNC(=O)c1sc2cccc(Cl)c2c1Cl` [C00018], the IC50 in the data set on OGG1 [3] is 0.22 µM. Usually Kd stands for the concentration at which binding is half-saturated. As to `Cc1ccc(C(=O)Nc2ccc(S(=O)(=O)O)c3cc(S(=O)(=O)O)cc(S(=O)(=O)O)c23)cc1NC(=O)c1cccc(NC(=O)Nc2cccc(C(=O)Nc3cc(C(=O)Nc4ccc(S(=O)(=O)O)c5cc(S(=O)(=O)O)cc(S(=O)(=O)O)c45)ccc3C)c2)c1` [suramin], the Kd at MutY is 16 µM. Regarding `Cc1cc(/C=C/C#N)cc(C)c1Nc1nc(Nc2ccc3c(c2)OCO3)c2nc[nH]c2n1` [C00028 R = C00032], the IC50 in the data set with NEIL1 is 10 µM. On to `NC(=O)c1cccc(-c2ccc(S(=O)(=O)Nc3ccc4c(c3)N(C(=O)C3CC3)CCC4)cc2)c1` [C00025], for which, in the data set with OGG1 [3], the IC50 was 0.059 µM.

As to `CCn1cnc2c(Nc3cccc(C)c3)nc(N[C@@H]3CCCC[C@@H]3N)nc21` [C00027], in the data set with NEIL1, the IC50 is 25 µM. In the case of `O=C(NN=C1CCCCC1)c1cc2ccccc2cc1O` [C00022], in the data set with OGG1 [3], the IC50 is 0.34 µM. Regarding 2-thioxanthine, the IC50 in the data set with Fpg [2] (oxidizes zinc finger cysteines, not a true inhibitor, read-out: IC50, ability to suppress Fpg activity) was 10 to 100 µM; with Fpg [4] (read-out: I50), 17 µM; in the data set with Fpg [7], 100 µM.

Take `O=c1cc(/C=N/OCCCO/N=C/c2cc(O)c(O)cc2[N+](=O)[O-])[nH]c(=O)[nH]1` [C00002 R = NO2]: the IC50 in the data set on UNG [1] (bipartite inhibitors) is 40 µM. Turning to `CCCCCCCCc1ccc(Nc2cc(=O)[nH]c(=O)[nH]2)cc1` [C00001 R1 = n-octyl R2 = H, 6-(p-n-octylanilino)uracil], the IC50 with UNG [8] (UNG, HSV1, read-out: I50) is 8 µM; in the data set with UNG [8] (herpes simplex type 1 UNG, read-out: IC50 for the viral enzyme), around 8 µM; in the data set on UNG [1], above 300 µM. As for `N#C[C@]1(n2ccc(=O)[nH]c2=O)C[C@H](O)[C@@H](COP(=O)(O)OP(=O)(O)OP(=O)(O)O)O1` [1′-cyano-2′-deoxyuridine triphosphate], the Ki result on UNG [9] (E. coli Ung, nucleotide incorporated into DNA) was “nanomolar”; at UNG [1] (human UNG, nucleotide incorporated into DNA), “nanomolar”. Consider `O=c1cc(/C=N/OCC(CO/N=C/c2ccc(O)c(O)c2)CO/N=C/c2cc(=O)[nH]c(=O)[nH]2)[nH]c(=O)[nH]1`, for which the IC50 in the data set on UNG [1] (triskelion inhibitors) is 0.9 µM. As for `CCCCCc1cc(O)cc2c1Oc1cc(O)cc(C(=O)CCCC)c1C(=O)O2` [norlobaric acid], the IC50 in the data set on Nei2 (read-out: I50) was 42 µM. Besides, at Nei2 (setting [11]), the Ki was 0.074 µM.

Regarding `Oc1ccc(NCc2ccccc2OCc2ccccc2)cc1` [C00012], in the data set on D4/A20 complex, the IC50 is 5.1 µM. As for gentamicin, the IC50 was 1500 µM in the data set with UNG [10] and 420 µM in the data set with UNG [9] (UNG, E. coli, read-out: I50).

On to `Cc1cc(/C=C/C#N)cc(C)c1Nc1nc(Nc2ccc3scnc3c2)c2nc[nH]c2n1` [C00028 R = C00029], for which the IC50 in the data set on NEIL1 was 4 µM.

Consider `O=c1cc(/C=N/OCC(CO/N=C/c2ccc(O)c(O)c2)CO/N=C/c2ccc(O)c(O)c2)[nH]c(=O)[nH]1` [C00009 R1 = R2 = 3,4-dihydroxyphenyl], for which, in the data set with UNG [1] (triskelion inhibitors), the IC50 was 1.6 µM. Consider `O=c1cc(/C=N/OCCCO/N=C/c2cc(O)c(O)cc2Br)[nH]c(=O)[nH]1` [C00002 R = Br], for which the IC50 in the data set with UNG [1] (bipartite inhibitors) was 40 µM.
